34 compounds from PubChem BioAssay (NCI) can be followed below.

Among the test systems are DLD-1 colon; DMS 114 small cell lung; DMS 273 small cell lung; HOP-18 NSCLC; KM20L2 colon; M19-MEL melanoma; RXF-631 renal; XF 498 CNS; MDA-N.
What all share (test): NCI-60 cell line screen, 48 h

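A five-concentration, 48-hour dose response in 96-well plates underlies each endpoint, interpolated linearly between surrounding concentrations. GI50: concentration for 50% inhibition of growth. TGI is the concentration that stops growth completely.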

As to `COc1cc(/C=C/c2ccc(Br)cc2)cc(OC)c1OC`, the TGI in the assay on DLD-1 colon is above 100 µM; in the assay on DMS 114 small cell lung it was 52.8 µM; in the assay on DMS 273 small cell lung, above 47.5 µM; in the assay on HOP-18 NSCLC it was above 74.6 µM; in the assay on KM20L2 colon, 29.8 µM; in the assay on M19-MEL melanoma, above 71.5 µM. The TGI is above 75.4 µM in the assay with RXF-631 renal and 65.9 µM in the assay with XF 498 CNS.

`O=c1ccc(=O)n(-c2ccccc2)[nH]1` yielded a TGI in the assay with MDA-N above 100 µM.

For the compound `O=C(COc1ccc(OCC(=O)N2C(=O)CN(c3ccccc3)C2=S)cc1)N1C(=O)CN(c2ccccc2)C1=S`, in the assay with MDA-N, the GI50 is above 25 µM and the TGI was above 100 µM.

For `COc1ccc(S(=O)(=O)N[C@H](C(=O)O)c2ccccc2)cc1`, the TGI in the assay with DLD-1 colon, with DMS 114 small cell lung, in the assay on DMS 273 small cell lung, in the assay on HOP-18 NSCLC, in the assay with KM20L2 colon and in the assay on M19-MEL melanoma was above 100 µM each time. Also, in the assay with XF 498 CNS, the TGI was above 100 µM.

On to `CCOC(=O)C(NO)C(Sc1ccccc1)c1ccc(OC)cc1` (configuration not stated), for which the TGI in the assay on DLD-1 colon, with DMS 114 small cell lung, in the assay with DMS 273 small cell lung, with HOP-18 NSCLC, with KM20L2 colon and in the assay with M19-MEL melanoma was above 100 µM each time. The compound further returned a TGI in the assay on XF 498 CNS above 100 µM.

Regarding `COc1cccc(/C=C/c2ccnc3ccccc23)c1OC`, the TGI in the assay on MDA-N was above 10 µM.

With `CCN(CC)CC(=O)NC1c2ccccc2Oc2c(C)cccc21` (configuration not stated), the TGI in the assay with DLD-1 colon, with DMS 114 small cell lung, in the assay on DMS 273 small cell lung, in the assay with KM20L2 colon, in the assay with M19-MEL melanoma and in the assay with XF 498 CNS was above 100 µM throughout.

For `O=C(CCl)Nc1cc(Cl)c(Cl)cc1Cl`, in the assay with MDA-N, the TGI was 3.19 µM.

For `COc1ccc2c(c1)[n+](=O)c(C(=O)C/C(=N/NC(=O)C[N+](C)(C)C)C(=O)Nc1cccc(C)c1C)c(C)n2O`, the TGI in the assay with DLD-1 colon, in the assay with DMS 114 small cell lung, with DMS 273 small cell lung, with HOP-18 NSCLC, with KM20L2 colon and with M19-MEL melanoma was above 100 µM throughout. For the same compound, the TGI in the assay on RXF-631 renal is above 100 µM.

As for `COC(=O)C1C(=O)O[C@@H](c2ccc(OC)c(OC)c2OC)C1C(=O)OC` (mixture of isomers), the TGI in the assay with DLD-1 colon, in the assay with DMS 114 small cell lung, in the assay with DMS 273 small cell lung, in the assay with KM20L2 colon, in the assay on M19-MEL melanoma and in the assay with RXF-631 renal was above 100 µM throughout. Besides, the TGI in the assay with XF 498 CNS is above 100 µM.

Consider `CC(=O)Nc1ccc(/C=C2\N=C(c3ccccc3)OC2=O)cc1`, for which the TGI in the assay on DLD-1 colon, with DMS 114 small cell lung, in the assay with HOP-18 NSCLC and in the assay on KM20L2 colon was above 100 µM each time.

For `C[C@H](CS)C(=O)N1c2ccccc2C[C@H]1C(=O)O`, the TGI with MDA-N was above 100 µM.

In the case of `CN(C)Cc1ccc(C(C)(C)C)cc1-c1cc(C(C)(C)C)ccc1CN(C)C`, the TGI in the assay on MDA-N is above 100 µM.

For the compound `COc1cc(-c2ccc(NC(=O)SCCC(=O)O)cc2OC)ccc1NC(=O)SCCC(=O)O`, the TGI with DMS 114 small cell lung, in the assay on DMS 273 small cell lung, in the assay with KM20L2 colon, in the assay with M19-MEL melanoma and with XF 498 CNS was above 100 µM in each case.

For the compound `COC1[C@H](NC(=O)OC(C)(C)C)C(=O)N1Cc1ccccc1` (some centres not stated), the TGI with DLD-1 colon, with DMS 114 small cell lung, with DMS 273 small cell lung, with KM20L2 colon, with M19-MEL melanoma and in the assay on XF 498 CNS was above 100 µM each time.

Turning to `COC1OC(CBr)C(OC(=O)c2ccccc2)C(OS(=O)(=O)c2ccc(C)cc2)C1Br` (configuration not stated), the TGI in the assay on DMS 273 small cell lung, in the assay with KM20L2 colon and in the assay on M19-MEL melanoma was above 100 µM in each case.

Turning to `O=CNc1ccc(S(=O)(=O)c2ccc(NC=O)cc2)cc1`, in the assay with MDA-N, the TGI was above 100 µM.

Consider `CC1CCC(=O)C(C(O)CC2CC(=O)N(c3ccccc3)C(=O)C2)C1` (configuration not stated), for which the TGI in the assay with DLD-1 colon, in the assay on DMS 114 small cell lung, in the assay on DMS 273 small cell lung, with HOP-18 NSCLC, with KM20L2 colon and in the assay on M19-MEL melanoma was above 100 µM each time.

In the case of `O=C1C2c3[nH]c4ccccc4c3C3CCCCCC3C2C(=O)N1c1ccccc1` (configuration not stated), the TGI is above 100 µM in the assay on DLD-1 colon; above 100 µM with DMS 114 small cell lung; above 100 µM in the assay with DMS 273 small cell lung; above 60.4 µM in the assay with HOP-18 NSCLC; above 100 µM in the assay with KM20L2 colon; above 100 µM in the assay with M19-MEL melanoma. The TGI in the assay on XF 498 CNS is 47.4 µM.

Take `COc1ccc(-c2ccccc2)c2[nH]c3c(c12)CCNC3=O`: the TGI with DLD-1 colon, in the assay with DMS 273 small cell lung, in the assay with KM20L2 colon and in the assay on M19-MEL melanoma was above 100 µM each time.

As to `CC1=C(C(=O)NCc2ccccc2)C(c2ccccc2C)C(C(=O)NCc2ccccc2)=C(C)N1`, the TGI is 51.3 µM in the assay with DLD-1 colon; above 67.7 µM in the assay with DMS 114 small cell lung; above 69.9 µM with DMS 273 small cell lung; above 91.2 µM in the assay with HOP-18 NSCLC; above 75.5 µM in the assay with KM20L2 colon; above 75.8 µM with M19-MEL melanoma. For the same compound, the TGI with RXF-631 renal was above 100 µM.

Regarding `CN(NC1OC(CO)C(O)C(O)C1O)c1ccccc1` (configuration not stated), the TGI with DLD-1 colon was above 100 µM; in the assay with DMS 273 small cell lung it was above 100 µM; in the assay with HOP-18 NSCLC it was above 100 µM; in the assay with KM20L2 colon, above 100 µM; in the assay on M19-MEL melanoma, above 100 µM; in the assay with XF 498 CNS it was 30.6 µM.

`CCN(CC)c1ccc(C2NC(=O)c3ccccc3N2)cc1` (configuration not stated) gave a TGI with MDA-N of 2.55 µM.

With `O=C(O)c1c(Cl)c(Cl)c(Cl)c(Cl)c1C(=O)Nc1ccc2cn[nH]c2c1`, in the assay on MDA-N, the TGI was above 100 µM.

In the assay on MDA-N, `COc1ccc2nc3cc([N+](=O)[O-])ccc3c(NNc3ccccc3)c2c1` displayed a TGI above 100 µM.

In the case of `CN(C)CCn1cnc2ncccc2c1=O`, the TGI in the assay on DLD-1 colon, in the assay with DMS 114 small cell lung, in the assay on DMS 273 small cell lung, in the assay with KM20L2 colon, in the assay with M19-MEL melanoma and with XF 498 CNS was above 100 µM in each case.

For `O=C(/C=C/C(Cl)(Cl)Cl)Nc1ccc(Cl)cc1`, the TGI in the assay on MDA-N amounted to 13.8 µM.

With `O=Cc1c(-c2ccccc2)[nH]c2ccccc2c1=O`, in the assay on MDA-N, the TGI amounted to 34.2 µM.

Compound `O=C1C=CC(=Nc2cccc3c(N=C4C=CC(=O)O4)cccc23)O1` showed a TGI in the assay on MDA-N of 69.1 µM.

For the compound `CN(C)C(=O)NC(=S)N(C)C`, the TGI in the assay with DLD-1 colon, in the assay on DMS 114 small cell lung, in the assay on DMS 273 small cell lung, with HOP-18 NSCLC, in the assay with KM20L2 colon and in the assay on M19-MEL melanoma was above 100 µM in each case. Further, the TGI in the assay on XF 498 CNS was above 100 µM.

On to `CC(=O)[CH-]C(=O)c1ccccc1.CC(=O)[CH-]C(=O)c1ccccc1.CC(C)CCC[C@H](C)C1CCC2[C@@H]3CC=C4C[C@@H]([O-])CC[C@]4(C)C3CC[C@@]21C.CC(C)CCC[C@H](C)C1CCC2[C@@H]3CC=C4C[C@@H]([O-])CC[C@]4(C)C3CC[C@@]21C.Cl.[Ti+4]` (some centres not stated), for which the GI50 in the assay with DLD-1 colon, with DMS 273 small cell lung, with HOP-18 NSCLC and in the assay on KM20L2 colon was above 25 µM throughout. For the same compound, the TGI with DLD-1 colon, with DMS 273 small cell lung, in the assay on HOP-18 NSCLC and in the assay with KM20L2 colon was above 25 µM in each case.

As for `Clc1ccc(OCc2nnc3n2N=C(c2ccc(Br)cc2)CS3)cc1`, the TGI with DMS 114 small cell lung is 54 µM; in the assay with DMS 273 small cell lung, above 100 µM; with M19-MEL melanoma, above 100 µM; in the assay on XF 498 CNS, 21.4 µM.

Compound `C(=Nc1cnc2ccccc2c1)c1ccc2ccccc2n1` had a TGI in the assay with MDA-N above 100 µM.

With `CC(=O)OCC1OC(OCc2ccccc2)C(Br)C(OC(C)=O)C1OC(C)=O` (configuration not stated), the TGI in the assay on DLD-1 colon, in the assay with DMS 273 small cell lung, in the assay on HOP-18 NSCLC, with KM20L2 colon, in the assay on M19-MEL melanoma and in the assay on RXF-631 renal was above 100 µM in each case. Also, the TGI in the assay on XF 498 CNS was above 100 µM.
